# Test results reported in article PMC8531348, “Design, synthesis, biological evaluation, and molecular modeling studies of pyrazole-benzofuran hybrids as new α-glucosidase inhibitor” (Scientific Reports, 2021).
# Values joined by “and” are separate entries in the source; they are usually repeats but may differ in a detail not shown here. Equal values may be shown once. Read-outs that look alike come from different tables or passages of the source.
# Tests used:
# [1] = molecular target: T1, α-glucosidase enzyme (from Saccharomyces cerevisiae, EC3.2.1.20) (Saccharomyces cerevisiae, UniProt P53341); assay: biochemical; type: biochemical; conditions: for fold more potent than the standard acarbose: ratio of IC50 versus acarbose
# T1 construct: purchased Sigma Chemical Co. (St. Louis, USA)
# T1 sequence (P53341 whole entry): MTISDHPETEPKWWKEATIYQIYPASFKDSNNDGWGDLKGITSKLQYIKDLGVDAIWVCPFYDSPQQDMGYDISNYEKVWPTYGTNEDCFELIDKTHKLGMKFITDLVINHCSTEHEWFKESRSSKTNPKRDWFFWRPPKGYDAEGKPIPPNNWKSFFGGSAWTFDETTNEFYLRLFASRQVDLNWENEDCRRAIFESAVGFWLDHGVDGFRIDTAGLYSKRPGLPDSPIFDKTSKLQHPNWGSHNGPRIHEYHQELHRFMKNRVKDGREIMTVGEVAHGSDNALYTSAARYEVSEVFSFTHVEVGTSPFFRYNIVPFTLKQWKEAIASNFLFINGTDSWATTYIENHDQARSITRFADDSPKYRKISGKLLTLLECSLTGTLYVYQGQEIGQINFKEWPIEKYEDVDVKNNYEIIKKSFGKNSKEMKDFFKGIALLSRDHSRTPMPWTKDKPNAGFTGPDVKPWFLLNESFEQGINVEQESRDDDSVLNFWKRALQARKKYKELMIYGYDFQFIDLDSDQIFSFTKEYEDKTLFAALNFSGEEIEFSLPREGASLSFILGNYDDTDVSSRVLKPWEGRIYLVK
# Procedure: The α-glucosidase enzyme (from Saccharomyces cerevisiae, EC3.2.1.20) was used to evaluate the α-glucosidase inhibitory activity. […] Therefore, α-glucosidase from yeast is extensively used for the preliminary screening of α-glucosidase inhibitors[47],[48]. […] Stock solutions of the test compounds and acarbose were prepared in DMSO and eventually diluted with phosphate buffer saline to attain the desired concentration. […] The percentage of enzyme inhibition for each entry was calculated using the following formula:
# % Inhibition = [(Abs control—Abs sample)/Abs control] × 100.
# [2] = molecular target: T2, α-glucosidase (Saccharomyces cerevisiae, UniProt P53341); assay: Kinetic study of α-glucosidase inhibition (Lineweaver–Burk plots); type: biochemical
# T2 construct: purchased Sigma Chemical Co. (St. Louis, USA)
# T2 sequence (P53341 whole entry): as above
# Procedure: In different concentrations of test compound (0, 10, 25, and 40 µM) and with the incremental concentration (2–10 mM) of substrate, the rate of the enzyme activity was calculated. The type of inhibition and experimental inhibition constant (Ki) value were determined by employing Lineweaver–Burk plots and secondary re-plot of these plots, respectively. […] This pattern indicates a competitive type of inhibition.
# The kinetics of enzyme inhibition was performed according to the reaction conditions in 2.5 by preparing a series of test solutions in which the concentration of the substrate (PNPG) was varied (2–10 mM) in the absence and presence of compound 8e at different concentrations (0, 10, 25, and 40 µM). A Lineweaver–Burk plot was generated to identify the type of inhibition and the Michaelis–Menten constant (Km) value was determined from the plot between reciprocal of the substrate concentration (1/[S]) and reciprocal of enzyme rate (1/V) over various inhibitor concentrations. The experimental inhibitor constant (Ki) value was constructed by secondary plots of the inhibitor concentration [I] versus Km.
# [3] = Cytotoxicity against normal 3T3 cell line by MTT assay; type: cell-based; conditions: mouse, 3T3 cells (normal cell line); MTT assay, normal 3T3 cell line
# Procedure: (§1) The results of cytotoxic activity were expressed as the IC50 (µM) and outlined in Table 2.
# (§2) The cytotoxicity of the compounds 8e, 8l, 8f and 8n was determined using the 3-(4,5 Dimethylthiazol-2-yl)-2,5-diphenyltetrazolium bromide (MTT) assay according to previously described methods.
# [4] = system: 3T3 cell line; assay: as above; type: cell-based; conditions: at 150 µM concentration, 3T3, MTT
# Procedure: as §1, §2
Compound,IC50 [1] [µM],melting point [°C],further results
"O=C(NN=Cc1cn(-c2ccccc2)nc1-c1ccccc1)c1cc2ccccc2o1 [8a, N'-((1,3-Diphenyl-1H-pyrazol-4-yl)methylene)benzofuran-2-carbohydrazide]",141.2 ± 1.4,210 to 211,–
"Cc1ccc(-c2nn(-c3ccccc3)cc2C=NNC(=O)c2cc3ccccc3o2)cc1 [8b, N'-((1-Phenyl-3-p-tolyl-1H-pyrazol-4-yl)methylene)benzofuran-2-carbohydrazide]",108.3 ± 0.8,234 to 235,–
"COc1ccc(-c2nn(-c3ccccc3)cc2C=NNC(=O)c2cc3ccccc3o2)cc1 [8c, N'-((3-(4-Methoxyphenyl)-1-phenyl-1H-pyrazol-4-yl)methylene)benzofuran-2-carbohydrazide]",100.3 ± 0.7,207 to 209,–
"O=C(N/N=C/c1cn(-c2ccccc2)nc1-c1ccc(O)cc1)c1cc2ccccc2o1 [8d, (E)-N'-((3-(4-hydroxyphenyl)-1-phenyl-1H-pyrazol-4-yl)methylene)benzofuran-2-carbohydrazide]",133.6 ± 1.2,280 to 281,–
"O=C(NN=Cc1cn(-c2ccccc2)nc1-c1ccc([N+](=O)[O-])cc1)c1cc2ccccc2o1 [8e, N'-((3-(4-Nitrophenyl)-1-phenyl-1H-pyrazol-4-yl)methylene)benzofuran-2-carbohydrazide]",–,–,"IC50 ([1]; mean ± SD, at least three experiments, substrate p-nitrophenyl-α-glucopyranoside, read-out: IC50 α-glucosidase inhibitory activity): 40.6 ± 0.2 µM; fold more potent than the standard acarbose [1]: approximately 18 fold; type of inhibition ([2]; Lineweaver–Burk plot): competitive; Ki ([2]; secondary re-plot of Lineweaver–Burk plots, 0, 10, 25, 40 µM inhibitor, substrate 2–10 mM, read-out: inhibition constant Ki): ~38 µM and 38 µM; IC50 [3]: > 150 µM; cytotoxicity against normal cell line [4]: noncytotoxic"
"O=C(NN=Cc1cn(-c2ccccc2)nc1-c1ccc(Br)cc1)c1cc2ccccc2o1 [8f, N'-((3-(4-Bromophenyl)-1-phenyl-1H-pyrazol-4-yl)methylene)benzofuran-2-carbohydrazide]",79.7 ± 0.5,243 to 245,fold more potent than the standard acarbose [1]: nine-fold; IC50 [3]: > 150 µM; cytotoxicity against normal cell line [4]: noncytotoxic
"O=C(NN=Cc1cn(-c2ccccc2)nc1-c1ccc(Cl)cc1)c1cc2ccccc2o1 [8g, N'-((3-(4-Chlorophenyl)-1-phenyl-1H-pyrazol-4-yl)methylene)benzofuran-2-carbohydrazide]",125.3 ± 1,241 to 243,–
"O=C(NN=Cc1cn(-c2ccccc2)nc1-c1ccc(F)cc1)c1cc2ccccc2o1 [8h, N'-((3-(4-Fluorophenyl)-1-phenyl-1H-pyrazol-4-yl)methylene)benzofuran-2-carbohydrazide]",164 ± 1.8,253 to 254,–
"O=C(NN=Cc1cn(-c2ccccc2)nc1-c1ccc(C(F)(F)F)cc1)c1cc2ccccc2o1 [8i, N'-((1-Phenyl-3-(4-(trifluoromethyl)phenyl)-1H-pyrazol-4-yl)methylene)benzofuran-2-carbohydrazide]",101.7 ± 0.7,217 to 218,–
"Cc1ccc(-n2cc(C=NNC(=O)c3cc4ccccc4o3)c(-c3ccccc3)n2)cc1 [8j, N'-((3-Phenyl-1-p-tolyl-1H-pyrazol-4-yl)methylene)benzofuran-2-carbohydrazide]",157 ± 1.6,255 to 256,–
"Cc1ccc(-c2nn(-c3ccc(C)cc3)cc2C=NNC(=O)c2cc3ccccc3o2)cc1 [8k, N'-((1,3-Dip-tolyl-1H-pyrazol-4-yl)methylene)benzofuran-2-carbohydrazide]",115.6 ± 0.9,259 to 261,–
"COc1ccc(-c2nn(-c3ccc(C)cc3)cc2C=NNC(=O)c2cc3ccccc3o2)cc1 [8l, N'-((3-(4-Methoxyphenyl)-1-p-tolyl-1H-pyrazol-4-yl)methylene)benzofuran-2-carbohydrazide]",54.7 ± 0.3,230 to 232,increase in activity compared with compound 8c ([1]; effect of methyl group on R2): two-fold; fold more potent than the standard acarbose [1]: > 13 fold; IC50 [3]: > 150 µM; cytotoxicity against normal cell line [4]: noncytotoxic
"Cc1ccc(-n2cc(C=NNC(=O)c3cc4ccccc4o3)c(-c3ccc(O)cc3)n2)cc1 [8m, N'-((3-(4-Hydroxyphenyl)-1-p-tolyl-1H-pyrazol-4-yl)methylene)benzofuran-2-carbohydrazide]",127 ± 1,293 to 295,–
"Cc1ccc(-n2cc(C=NNC(=O)c3cc4ccccc4o3)c(-c3ccc(Br)cc3)n2)cc1 [8n, N'-((3-(4-Bromophenyl)-1-p-tolyl-1H-pyrazol-4-yl)methylene)benzofuran-2-carbohydrazide]",95.6 ± 0.6,258 to 259,fold more potent than the standard acarbose [1]: approximately eight-fold; IC50 [3]: > 150 µM; cytotoxicity against normal cell line [4]: noncytotoxic
"Cc1ccc(-n2cc(C=NNC(=O)c3cc4ccccc4o3)c(-c3ccc(Cl)cc3)n2)cc1 [8o, N'-((3-(4-Chlorophenyl)-1-p-tolyl-1H-pyrazol-4-yl)methylene)benzofuran-2-carbohydrazide]",155 ± 1.6,248 to 249,–
